We go through 30 compounds from patent publication US10266526B2, “Substituted 1,2,3-triazoles as SMYD inhibitors for treating cancer” (EPIZYME, INC., priority 2014, dated 2019).

SMILES strings stand for the structures. pIC50: −log10 of the molar value. Some results are limits rather than exact numbers.

Chain of SMYD3 (Q9H7B4 whole entry): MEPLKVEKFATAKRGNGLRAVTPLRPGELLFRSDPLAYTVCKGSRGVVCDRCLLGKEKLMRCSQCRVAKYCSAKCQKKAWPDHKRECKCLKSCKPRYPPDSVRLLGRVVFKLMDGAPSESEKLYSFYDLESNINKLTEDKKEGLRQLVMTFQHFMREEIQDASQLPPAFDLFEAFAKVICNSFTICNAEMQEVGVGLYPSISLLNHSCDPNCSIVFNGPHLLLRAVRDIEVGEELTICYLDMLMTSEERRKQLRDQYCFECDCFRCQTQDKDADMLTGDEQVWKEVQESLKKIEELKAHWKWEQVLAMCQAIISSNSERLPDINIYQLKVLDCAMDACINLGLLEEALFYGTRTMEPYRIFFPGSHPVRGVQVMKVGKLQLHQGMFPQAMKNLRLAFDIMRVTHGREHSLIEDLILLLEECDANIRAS

In one assay the target is SMYD3 (Homo sapiens (Human), UniProt Q9H7B4). Kind of assay: SMYD3 biochemical assay (SMYD3 enzyme assay on MEKK2 protein substrate, 3H-SAM scintillation proximity assay). The following applies: Table 1A; average of n = 1 to n = 50; read-out: SMYD3 Biochem IC50. The source says:
S-adenosylmethionine (SAM), S-adenosylhomocysteine (SAH), Tris, Tween20, dimethylsulfoxide (DMSO), bovine skin gelatin (BSG), and Tris(2-carboxyethyl)phosphine hydrochloride solution (TCEP) were purchased from Sigma-Aldrich at the highest level of purity possible. ^3H-SAM was purchase from American Radiolabeled Chemicals with a specific activity of 80 Ci/mmol. 384-well opaque white OptiPlates and SPA beads (Perkin Elmer, catalog # RPNQ0013) were purchased from PerkinElmer.
N-terminally GST-tagged MEKK2 (MAP3K2) protein corresponding to reference sequence AAF63496.3 was purchased from Life Technologies (catalog # PV4010). This protein was expressed in High Five insect cells and purified to >85% purity. Protein identity was confirmed by MS/MS analysis after proteolytic digestion. The protein sequence used was:
Full-length human SMYD3 isoform 1 (BAB86333) was inserted into a modified pET21b plasmid containing a His6 tag and TEV and SUMO cleavage sites.
E. coli (BL21 codonplus RIL strain, Stratagene) were transformed with plasmid pEPZ553 by mixing competent cells and plasmid DNA and incubating on ice for 30 minutes followed by heat shock at 42° C. for 1 minute and cooling on ice for 2 minutes. Transformed cells were grown and selected on LB agar with 100 μg/mL ampicillin and 17 μg/mL chloramphenicol at 37° C. overnight. A single clone was used to inoculate 200 mL of LB medium with 100 μg/mL ampicillin and 17 μg/mL chloramphenicol and incubated at 37° C. on an orbital shaker at 180 rpm. Once in log growth, the culture was diluted 1:100 into 2 L of LB medium and grown until OD600 was about 0.3 after which the culture was incubated at 15° C. and 160 rpm. Once OD600 reached about 0.4, IPTG was added to a final concentration of 0.1 mM and the cells were grown overnight at 15° C. and 160 rpm. Cells were harvested by centrifugation at 8000 rpm, for 4 minutes at 4° C. and stored at −80° C. for purification.
The column was washed with Buffer B (Buffer A plus 20 mM imidazole) and His-tagged SMYD3 was eluted with Buffer C (Buffer A plus 300 mM imidazole). The His tag, TEV and SUMO cleavage sites were removed generating native SMYD3 by addition of ULP1 protein at a ratio of 1:200 (ULP1:SMYD3). Imidazole was removed by dialysis overnight in Buffer A. The dialyzed solution was applied to a second Nickel column and the native SMYD3 protein was collected from the column flow-through. The flow-through was dialyzed in Buffer D (25 mM Tris, 5% glycerol, 5 mM β-mercaptoethanol, 50 mM NaCl, pH7.8) and ULP1 was removed using a Q sepharose fast flow column.
General Procedure for SMYD3 Enzyme Assays on MEKK2 Protein Substrate
The assays were all performed in a buffer consisting of 25 mM Tris-Cl pH 8.0, 1 mM TCEP, 0.005% BSG, and 0.005% Tween 20, prepared on the day of use. […] DMSO (1 ul) was added to Columns 11, 12, 23, 24, rows A-H for the maximum signal control and 1 ul of SAH, a known product and inhibitor of SMYD3, was added to columns 11, 12, 23, 24, rows I-P for the minimum signal control. A cocktail (40 ul) containing the SMYD3 enzyme was added by Multidrop Combi (Thermo-Fisher). The compounds were allowed to incubate with SMYD3 for 30 min at room temperature, then a cocktail (10 ul) containing SAM and MEKK2 was added to initiate the reaction (final volume=51 ul). […] The assays were stopped by the addition of non-radiolabeled SAM (10 ul) to a final concentration of 100 uM, which dilutes the ^3H-SAM to a level where its incorporation into MEKK2 is no longer detectable. Radiolabeled MEKK2 was detected using a scintillation proximity assay (SPA). 10 uL of a 10 mg/mL solution of SPA beads in 0.5 M citric acid was added and the plates centrifuged at 600 rpm for 1 min to precipitate the radiolabeled MEKK2 onto the SPA beads.
As for `NCCC(=O)N[C@H]1CC[C@H](NC(=O)c2cc3cn[nH]c3cn2)CC1` [compound 529, N-((1r,4r)-4-(3-aminopropanamido)cyclohexyl)-1H-pyrazolo[3,4-c]pyridine-5-carboxamide], the pIC50 was 5.35.

On to `Cc1c[nH]c(C(=O)N[C@H]2CC[C@H](N)CC2)n1` [compound 562, N-((1r,4r)-4-aminocyclohexyl)-4-methyl-1H-imidazole-2-carboxamide], for which the pIC50 was below 5.00. On the same count and under the same terms, then `N[C@H]1CC[C@H](NC(=O)c2n[nH]c(Cl)n2)CC1` [compound 541, N-((1r,4r)-4-aminocyclohexyl)-5-chloro-1H-1,2,4-triazole-3-carboxamide], with below 4.30.

The same assay, now with this note: read-out: SMYD3 Biochem IC50.
On to `Cc1c(C(=O)N[C@H]2CC[C@H](NC(=O)CCN)CC2)nnn1-c1ccccc1` [compound 401, N-((1r,4r)-4-(3-aminopropanamido)cyclohexyl)-5-methyl-1-phenyl-1H-1,2,3-triazole-4-carboxamide], for which the pIC50 was below 4.00.

For the compound `CC(NC(=O)c1nccnc1N)C1CCN(C(=O)[C@H](C)N)CC1` (stereo partly drawn) [compound 188, N-(1-(1-(L-alanyl)piperidin-4-yl)ethyl)-3-aminopyrazine-2-carboxamide], the pIC50 was below 4.00. For the compound `NCCC(=O)N[C@H]1CC[C@H](NC(=O)c2ccc3c(c2)OC(F)(F)O3)CC1` [compound 330, N-((1r,4r)-4-(3-aminopropanamido)cyclohexyl)-2,2-difluorobenzo[d][1,3]dioxole-5-carboxamide], the negative-log IC50 (pIC50) was 5.13.

Consider `CC1Oc2ccc(C(=O)NC(C)C3CCN(C(=O)[C@H](C)N)CC3)cc2NC1=O` (stereo partly drawn) [compound 450, N-(1-(1-(L-alanyl)piperidin-4-yl)ethyl)-2-methyl-3-oxo-3,4-dihydro-2H-benzo[b][1,4]oxazine-6-carboxamide], for which the negative-log IC50 (pIC50) was 4.60. Regarding `CC(NC(=O)c1ccc(O)nn1)C1CCN(C(=O)[C@H](C)N)CC1` (stereo partly drawn) [compound 191, N-(1-(1-(L-alanyl)piperidin-4-yl)ethyl)-6-hydroxypyridazine-3-carboxamide], the pIC50 was below 4.00.

On to `COc1cccc(C(=O)NC(C)C2CCN(C(=O)[C@H](C)N)CC2)n1` (stereo partly drawn) [compound 301, N-(1-(1-(L-alanyl)piperidin-4-yl)ethyl)-6-methoxypicolinamide], for which the negative logarithm of the IC50 (pIC50) was below 4.00.

As to `Cc1cncc(C(=O)N[C@H]2CC[C@H](NC(=O)CCN)CC2)c1` [compound 344, N-((1r,4r)-4-(3-aminopropanamido)cyclohexyl)-5-methylnicotinamide], the pIC50 is 4.44. Still for that read-out and setting: then `Cn1nc(C(C)(C)C)cc1C(=O)N[C@H]1CC[C@H](NC(=O)CCN)CC1` [compound 351, N-((1r,4r)-4-(3-aminopropanamido)cyclohexyl)-3-(tert-butyl)-1-methyl-1H-pyrazole-5-carboxamide], with below 4.00; and `NCCC(=O)N[C@H]1CC[C@H](NC(=O)Cc2c[nH]c3cccnc23)CC1` [compound 407, N-((1r,4r)-4-(2-(1H-pyrrolo[3,2-b]pyridin-3-yl)acetamido)cyclohexyl)-3-aminopropanamide], with below 4.00; and `N[C@H]1CC[C@H](NC(=O)c2ccc(Cl)cc2C(F)(F)F)CC1` [compound 358, N-((1r,4r)-4-aminocyclohexyl)-4-chloro-2-(trifluoromethyl)benzamide], with below 4.00.

On to `O=C1Cc2cc(C(=O)NC[C@@H]3CCNC3)ccc2N1` [compound 213, (R)-2-oxo-N-(pyrrolidin-3-ylmethyl)indoline-5-carboxamide], for which the pIC50 is 4.75.

With `CC(NC(=O)c1cccc2[nH]ccc12)C1CCN(C(=O)[C@H](C)N)CC1` (stereo partly drawn) [compound 248, N-(1-(1-(L-alanyl)piperidin-4-yl)ethyl)-1H-indole-4-carboxamide], the negative logarithm of the IC50 (pIC50) is below 4.00. As to `Cn1nccc1C(=O)N[C@H]1CC[C@H](N)CC1` [compound 415, N-((1r,4r)-4-aminocyclohexyl)-1-methyl-1H-pyrazole-5-carboxamide], the negative logarithm of the IC50 (pIC50) is below 4.00. On to `NCCC(=O)N[C@H]1CC[C@H](NC(=O)c2ccc3[nH]ccc3c2)CC1` [compound 235, N-((1r,4r)-4-(3-aminopropanamido)cyclohexyl)-1H-indole-5-carboxamide], for which the pIC50 was 4.87. Take `CC(NC(=O)c1cn2ncccc2n1)C1CCN(C(=O)[C@H](C)N)CC1` (stereo partly drawn) [compound 445, N-(1-(1-(L-alanyl)piperidin-4-yl)ethyl)imidazo[1,2-b]pyridazine-2-carboxamide]: the pIC50 was below 4.00.

As for `NCCC(=O)N[C@H]1CC[C@H](NC(=O)c2ccc3c(c2)CNC3=O)CC1` [compound 503, N-((1r,4r)-4-(3-aminopropanamido)cyclohexyl)-1-oxoisoindoline-5-carboxamide], the pIC50 is below 4.00.

Regarding `CC(NC(=O)c1ccccn1)C1CCN(C(=O)[C@H](C)N)CC1` (stereo partly drawn) [compound 296, N-(1-(1-(L-alanyl)piperidin-4-yl)ethyl)picolinamide], the pIC50 was below 4.00.

The same assay, now with this note: read-out: SMYD3 Biochem IC50 (μM)*.
Regarding `COc1ccc2cc(C(C)C(=O)N[C@H]3CC[C@H](NC(=O)CCN)CC3)ccc2c1` (stereo partly drawn) [compound 169, 3-amino-N-((1r,4r)-4-(2-(6-methoxynaphthalen-2-yl)propanamido)cyclohexyl)propanamide], the half-maximal inhibitory concentration (IC50) is above 100 µM. In the case of `CC(=O)Nc1ccc(S(=O)(=O)N2CCC(NC(=O)c3cccnc3)CC2)cc1` [compound 3, N-(1-((4-acetamidophenyl)sulfonyl)piperidin-4-yl)nicotinamide], the IC50 is above 100 µM. For `N[C@H]1CC[C@H](NC(=O)c2n[nH]c3ccccc23)CC1` [compound 172, N-((1r,4r)-4-aminocyclohexyl)-1H-indazole-3-carboxamide], the IC50 was above 100 µM. `Cc1cc2[nH]c(C(=O)NC(c3ccccc3)C3CCNCC3)cc2o1` (stereo not drawn) [compound 110, 2-methyl-N-(phenyl(piperidin-4-yl)methyl)-4H-furo[3,2-b]pyrrole-5-carboxamide]: the IC50 amounted to 82.8 µM. With `CCn1nc(C)cc1C(=O)NC(c1ccccc1)C1CCNCC1` (stereo not drawn) [compound 30, 1-ethyl-3-methyl-N-(phenyl(piperidin-4-yl)methyl)-1H-pyrazole-5-carboxamide], the IC50 came to 69.2 µM. Take `COc1cc(C(=O)N[C@H]2CC[C@H](N)CC2)cc2c1OCC(=O)N2` [compound 85, N-((1r,4r)-4-aminocyclohexyl)-8-methoxy-3-oxo-3,4-dihydro-2H-benzo[b][1,4]oxazine-6-carboxamide]: the IC50 is 184 µM. Still for that read-out and setting: then `NCCC(=O)N[C@H]1CC[C@H](NC(=O)c2ccc(S(N)(=O)=O)cc2)CC1` [compound 156, N-((1r,4r)-4-(3-aminopropanamido)cyclohexyl)-4-sulfamoylbenzamide], with above 100 µM. Same read-out and setting: in the case of `CCc1cncc(C(=O)N[C@H]2CC[C@H](N)CC2)c1` [compound 22, N-((1r,4r)-4-aminocyclohexyl)-5-ethylnicotinamide] it was 31.3 µM. `CCC1(C(=O)N[C@H]2CC[C@H](N)CC2)CCCN1` (stereo partly drawn) [compound 111, N-((1r,4r)-4-aminocyclohexyl)-2-ethylpyrrolidine-2-carboxamide]: the IC50 came out at 150 µM.

In the case of `N[C@H]1CC[C@H](NC(=O)c2ccc3ccc(O)nc3c2)CC1` [compound 119, N-((1r,4r)-4-aminocyclohexyl)-2-hydroxyquinoline-7-carboxamide], the IC50 turned out to be 116 µM.
